Reference: US12371454B2, “Cyclic peptide compound having Kras inhibitory action” (priority 2019, dated 2025)
Starred links: 1 amine or outer side, 2 acyl side, 3 side chain; linkers in the order of their positions; H or OH if unused. Positions of bridges follow the written chain, without caps; N, C: chain ends. Non-standard residues stand in square brackets, D forms with d. Residues, ends and D or L forms follow the SMILES beside them. *: point of attachment. hPhe(3-Cl-4-CF3) = N[C@@H](CCc1ccc(C(F)(F)F)c(Cl)c1)C(=O)O; NMePhe(3-Br) = CN[C@@H](Cc1cccc(Br)c1)C(=O)O; NMePhe(4-Me) = CN[C@@H](Cc1ccc(C)cc1)C(=O)O; NMePhe(4-F) = CN[C@@H](Cc1ccc(F)cc1)C(=O)O; NMedβ3hAla = C[C@H](CC(=O)[*:2])N(C)[*:1]; NMePhe(2-F) = CN[C@@H](Cc1ccccc1F)C(=O)O; NMehPhe = CN[C@@H](CCc1ccccc1)C(=O)O; NMeY = CN[C@@H](Cc1ccc(O)cc1)C(=O)O; NMeCha = CN[C@@H](CC1CCCCC1)C(=O)O; NMeF = CN[C@@H](Cc1ccccc1)C(=O)O; NMeD = CN[C@@H](CC(=O)O)C(=O)O; NMeL = CN[C@@H](CC(C)C)C(=O)O; NMeV = CN[C@H](C(=O)O)C(C)C; d(β3hA) = C[C@@H](N)CC(=O)O; NMeAbu = CC[C@H](NC)C(=O)O; NMeA = CN[C@@H](C)C(=O)O; Piperidide = C1CCN(*)CC1; Ac5c = NC1(C(=O)O)CCCC1; Aze = O=C(O)[C@@H]1CCN1; Sar = CNCC(=O)O

Experiments:
[1] = target: T1, Kras and SOS1 (biotin-tagged human Kras loaded with GDP, His-tagged human SOS1) (Homo sapiens, UniProt P01116, G12D); assay: Protein-protein interaction inhibition between Kras and SOS1 (KrasGl2D-SOS PPI) using AlphaScreen; assay type: binding; conditions: AlphaScreen; biotin-tagged human Kras loaded with GDP, His-tagged human SOS1; read-out: KRAS G12D-SOS PPI IC50
T1 construct: made in house; host or cells: E. coli (stated for Kras only)
Outline: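 Read-out is acceptor-bead light at 520-620 nm, arising when 680 nm-irradiated nickel donor beads pass singlet oxygen to streptavidin acceptors. The bead pair links His-tagged SOS1 with biotin-tagged, GDP-bound Kras from E. coli.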

[2] = test system: Human pancreatic cancer cell line AsPC-1; assay: Measurement of AsPC-1 cell growth inhibition (AsPC-1 CGI); assay type: cell-based; conditions: 96 h
Outline: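 AsPC-1 cells in 15% FBS RPMI-1640 were exposed to test compound for 96 hours at 37° C, with CellTiter-Glo as endpoint.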

T1 sequence (P01116 1-188 isoform P01116-2 G12D): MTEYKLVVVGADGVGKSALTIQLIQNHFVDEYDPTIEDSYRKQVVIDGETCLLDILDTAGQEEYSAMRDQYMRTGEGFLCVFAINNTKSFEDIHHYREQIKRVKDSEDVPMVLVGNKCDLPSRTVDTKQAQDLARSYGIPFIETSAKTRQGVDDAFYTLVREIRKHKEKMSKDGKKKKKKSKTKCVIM

For CC[C@H](C)[C@@H]1NC(=O)[C@H](CC(C)C)N(C)C(=O)C[C@@H](C(=O)N2CCCCC2)N(C)C(=O)[C@H](C(C)C)N(C)C(=O)C2(CCCC2)NC(=O)[C@@H]2CCCN2C(=O)[C@H](CCc2ccc(C(F)(F)F)c(Cl)c2)NC(=O)CN(C)C(=O)[C@H](Cc2ccc(C)cc2)N(C)C(=O)CN(C)C(=O)CN(C)C1=O [Compound 1594] ([NMeL]I[Sar][Sar][NMePhe(4-Me)][Sar][hPhe(3-Cl-4-CF3)]P[Ac5c][NMeV][NMeD]-Piperidide; lactam N-11), the IC50 [1] was 3.2 nM and the IC50 [2] was 100 to 500 nM.
CC[C@H](C)[C@@H]1NC(=O)[C@H](CC(C)C)N(C)C(=O)C[C@@H](C)N(C)C(=O)[C@H](C(C)C)N(C)C(=O)C2(CCCC2)NC(=O)[C@@H]2CCCN2C(=O)[C@H](CCc2ccc(C(F)(F)F)c(Cl)c2)NC(=O)CN(C)C(=O)[C@H](Cc2cccc(Br)c2)N(C)C(=O)CN(C)C(=O)CN(C)C1=O [Compound 1597] (cyclo([Ac5c][NMeV][NMedβ3hAla][NMeL]I[Sar][Sar][NMePhe(3-Br)][Sar][hPhe(3-Cl-4-CF3)]P)) was tested, and the IC50 [1] was 11 nM and the IC50 [2] was 50 to 100 nM.
Compound CC[C@H](C)[C@@H]1NC(=O)[C@H](CC(C)C)N(C)C(=O)C[C@@H](C(=O)N2CCCCC2)N(C)C(=O)[C@H](C(C)C)N(C)C(=O)C2(CCCC2)NC(=O)[C@@H]2CCCN2C(=O)[C@H](CCc2ccc(C(F)(F)F)c(Cl)c2)NC(=O)CN(C)C(=O)[C@H](Cc2ccccc2)N(C)C(=O)CN(C)C(=O)CN(C)C1=O [Compound 1598] ([NMeL]I[Sar][Sar][NMeF][Sar][hPhe(3-Cl-4-CF3)]P[Ac5c][NMeV][NMeD]-Piperidide; lactam N-11) has an IC50 [1] of 9.2 nM and an IC50 [2] of 100 to 500 nM.
CC[C@H](C)[C@@H]1NC(=O)[C@H](CC(C)C)N(C)C(=O)C[C@@H](C)N(C)C(=O)[C@H](C(C)C)N(C)C(=O)C2(CCCC2)NC(=O)[C@@H]2CCCN2C(=O)[C@H](CCc2ccc(C(F)(F)F)c(Cl)c2)NC(=O)CN(C)C(=O)[C@H](Cc2ccccc2F)N(C)C(=O)CN(C)C(=O)CN(C)C1=O [Compound 1599] (cyclo([Ac5c][NMeV][NMedβ3hAla][NMeL]I[Sar][Sar][NMePhe(2-F)][Sar][hPhe(3-Cl-4-CF3)]P)) was tested, and the IC50 [1] was 17 nM and the IC50 [2] was 100 to 500 nM.
Work on CC[C@H](C)[C@@H]1NC(=O)[C@H](CC(C)C)N(C)C(=O)C[C@@H](C)NC(=O)[C@H](C(C)C)N(C)C(=O)C2(CCCC2)NC(=O)[C@@H]2CCCN2C(=O)[C@H](CCc2ccc(C(F)(F)F)c(Cl)c2)NC(=O)CN(C)C(=O)[C@H](Cc2ccc(F)cc2)N(C)C(=O)CN(C)C(=O)CN(C)C1=O [Compound 1602] (cyclo([Ac5c][NMeV][d(β3hA)][NMeL]I[Sar][Sar][NMePhe(4-F)][Sar][hPhe(3-Cl-4-CF3)]P)) yielded an IC50 [1] of 6.3 nM and an IC50 [2] of 100 to 500 nM.
In the case of CC[C@H](C)[C@@H]1NC(=O)[C@H](CC(C)C)N(C)C(=O)C[C@@H](C)N(C)C(=O)[C@H](C(C)C)N(C)C(=O)C2(CCCC2)NC(=O)[C@@H]2CCCN2C(=O)[C@H](CCc2ccc(C(F)(F)F)c(Cl)c2)NC(=O)CN(C)C(=O)[C@H](Cc2ccccc2)N(C)C(=O)CN(C)C(=O)CN(C)C1=O [Compound 1604] (cyclo([Ac5c][NMeV][NMedβ3hAla][NMeL]I[Sar][Sar][NMeF][Sar][hPhe(3-Cl-4-CF3)]P)), the IC50 [1] is reported as 5.8 nM and the IC50 [2] is reported as 50 to 100 nM.
In the case of CC[C@H](C)[C@@H]1NC(=O)[C@H](CC(C)C)N(C)C(=O)C[C@@H](C)NC(=O)[C@H](C(C)C)N(C)C(=O)C2(CCCC2)NC(=O)[C@@H]2CCCN2C(=O)[C@H](CCc2ccc(C(F)(F)F)c(Cl)c2)NC(=O)CN(C)C(=O)[C@H](Cc2ccc(OC)cc2)N(C)C(=O)CN(C)C(=O)CN(C)C1=O [Compound 1605] (cyclo([Ac5c][NMeV][d(β3hA)][NMeL]I[Sar][Sar][NMeY](Me)[Sar][hPhe(3-Cl-4-CF3)]P)), the IC50 [1] is reported as 12 nM and the IC50 [2] is reported as 100 to 500 nM.
CC[C@H](C)[C@@H]1NC(=O)[C@H](CC)N(C)C(=O)C[C@@H](C)NC(=O)[C@H](C(C)C)N(C)C(=O)C2(CCCC2)NC(=O)[C@@H]2CCCN2C(=O)[C@H](CCc2ccc(C(F)(F)F)c(Cl)c2)NC(=O)CN(C)C(=O)[C@H](CC2CCCCC2)N(C)C(=O)[C@@H]2CCN2C(=O)[C@H](C)N(C)C1=O [Compound 1607] (cyclo([Ac5c][NMeV][d(β3hA)][NMeAbu]I[NMeA][Aze][NMeCha][Sar][hPhe(3-Cl-4-CF3)]P)) showed an IC50 [1] of 28 nM and an IC50 [2] of 100 to 500 nM.
Work on CC[C@H](C)[C@@H]1NC(=O)[C@H](CC(C)C)N(C)C(=O)C[C@@H](C(=O)N2CCCCC2)N(C)C(=O)[C@H](C(C)C)N(C)C(=O)C2(CCCC2)NC(=O)[C@@H]2CCCN2C(=O)[C@H](CCc2ccc(C(F)(F)F)c(Cl)c2)NC(=O)CN(C)C(=O)[C@H](CCc2ccccc2)N(C)C(=O)CN(C)C(=O)CN(C)C1=O [Compound 1608] ([NMeL]I[Sar][Sar][NMehPhe][Sar][hPhe(3-Cl-4-CF3)]P[Ac5c][NMeV][NMeD]-Piperidide; lactam N-11) yielded an IC50 [1] of 5.8 nM and an IC50 [2] of 100 to 500 nM.
